# In PubChem BioAssay AID180 (DTP/NCI, 2004):
# Several values for one entry are separate records, joined by “and”; a condition that tells them apart may be missing. Identical values can stand only once.
# Tested on: BDF1 mice, Adenocarcinoma 755 s.c., tumor weight T/C
# Test: NCI In Vivo Anticancer Drug Screen. Data for tumor model Adenocarcinoma 755 (subcutaneous) in B6D2F1 (BDF1) mice
# Details: endpoint: mean tumor weight, higher = larger tumour
# Experimental: The antitumor activity of compounds was measured in mice bearing transplantable tumors. Survival or tumor size were measured and the results are expressed as the measurement made in the treated group (T) divided by the measurement made in the vehicle treated control group (C). The tumor model used in this assay is Adenocarcinoma 755 (subcutaneous) in B6D2F1 (BDF1) mice
# [1] = dose: 25.0 mg/kg/injection, schedule: Q01DX011 (ip), vehicle: saline
# [2] = dose: 50.0 mg/kg/injection, schedule: Q01DX011 (ip), vehicle: saline
# [3] = dose: 25.0 mg/kg/injection, schedule: Q01DX011 (ip), vehicle: carboxymethylcellulose (CMC)
# [4] = dose: 75.0 mg/kg/injection, schedule: Q01DX011 (ip), vehicle: carboxymethylcellulose (CMC)
# [5] = dose: 225.0 mg/kg/injection, schedule: Q01DX011 (ip), vehicle: carboxymethylcellulose (CMC)
# [6] = dose: 50.0 mg/kg/injection, schedule: Q01DX011 (ip), vehicle: carboxymethylcellulose (CMC)
# [7] = dose: 25.0 mg/kg/injection, schedule: Q01DX011 (ip), vehicle: methylcellulose (MC)
# [8] = dose: 100.0 mg/kg/injection, schedule: Q01DX011 (ip), vehicle: carboxymethylcellulose (CMC)
# [9] = dose: 400.0 mg/kg/injection, schedule: Q01DX011 (ip), vehicle: carboxymethylcellulose (CMC)
# [10] = dose: 800.0 mg/kg/injection, schedule: Q01DX011 (ip), vehicle: carboxymethylcellulose (CMC)
smiles,measurement,setting,value
CC(O)CNc1ncnc2c1cnn2C (configuration not stated),T/C,"dose: 12.5 mg/kg/injection, schedule: Q01DX011 (ip), vehicle: saline",94 % of control
same,T/C,[1],30 % of control
same,T/C,[2],10 % of control
Cn1cnc(N)c(NC=O)c1=O,T/C,[3],98 % of control
same,T/C,[4],113 % of control
same,T/C,[5],115 % of control
CC(C)n1cnc2c(=S)nc[nH]c21,T/C,"dose: 0.2 mg/kg/injection, schedule: Q01DX011 (ip), vehicle: carboxymethylcellulose (CMC)",114 % of control
same,T/C,"dose: 0.39 mg/kg/injection, schedule: Q01DX011 (ip), vehicle: carboxymethylcellulose (CMC)",67 % of control
same,T/C,"dose: 0.45 mg/kg/injection, schedule: Q01DX011 (ip), vehicle: carboxymethylcellulose (CMC)",63 % of control
same,T/C,"dose: 0.78 mg/kg/injection, schedule: Q01DX011 (ip), vehicle: carboxymethylcellulose (CMC)",111 % of control
same,T/C,"dose: 0.9 mg/kg/injection, schedule: Q01DX011 (ip), vehicle: carboxymethylcellulose (CMC)",62 % of control
same,T/C,"dose: 0.9 mg/kg/injection, schedule: Q01DX011 (oral), vehicle: carboxymethylcellulose (CMC)",52 % of control
same,T/C,"dose: 1.56 mg/kg/injection, schedule: Q01DX011 (ip), vehicle: carboxymethylcellulose (CMC)",50 % of control
same,T/C,"dose: 1.8 mg/kg/injection, schedule: Q01DX011 (ip), vehicle: carboxymethylcellulose (CMC)",15 % of control
same,T/C,"dose: 1.8 mg/kg/injection, schedule: Q01DX011 (oral), vehicle: carboxymethylcellulose (CMC)",11 % of control
same,T/C,"dose: 3.12 mg/kg/injection, schedule: Q01DX011 (ip), vehicle: carboxymethylcellulose (CMC)",9 % of control
same,T/C,"dose: 3.6 mg/kg/injection, schedule: Q01DX011 (ip), vehicle: carboxymethylcellulose (CMC)",1 % of control
same,T/C,"dose: 3.6 mg/kg/injection, schedule: Q01DX011 (oral), vehicle: carboxymethylcellulose (CMC)",5 % of control
same,T/C,"dose: 3.62 mg/kg/injection, schedule: Q01DX011 (ip), vehicle: carboxymethylcellulose (CMC)",7 % of control and 14 % of control
same,T/C,"dose: 6.25 mg/kg/injection, schedule: Q01DX011 (ip), vehicle: carboxymethylcellulose (CMC)",6 % of control
same,T/C,"dose: 7.25 mg/kg/injection, schedule: Q01DX011 (ip), vehicle: carboxymethylcellulose (CMC)",3 % of control and 6 % of control
same,T/C,"dose: 7.25 mg/kg/injection, schedule: Q01DX011 (oral), vehicle: carboxymethylcellulose (CMC)",11 % of control
same,T/C,"dose: 12.5 mg/kg/injection, schedule: Q01DX011 (ip), vehicle: carboxymethylcellulose (CMC)",3 % of control
same,T/C,"dose: 14.5 mg/kg/injection, schedule: Q01DX011 (ip), vehicle: carboxymethylcellulose (CMC)",1 % of control
same,T/C,[3],8 % of control
same,T/C,"dose: 29.0 mg/kg/injection, schedule: Q01DX011 (oral), vehicle: carboxymethylcellulose (CMC)",2 % of control
same,T/C,[6],3 % of control and 6 % of control
CC(=O)Nc1nc(SCc2ccccc2)c2ncn(C(C)=O)c2n1,T/C,"dose: 7.5 mg/kg/injection, schedule: Q01DX011 (ip), vehicle: methylcellulose (MC)",53 % of control
same,T/C,"dose: 15.0 mg/kg/injection, schedule: Q01DX011 (ip), vehicle: methylcellulose (MC)",4 % of control
same,T/C,"dose: 30.0 mg/kg/injection, schedule: Q01DX011 (ip), vehicle: methylcellulose (MC)",2 % of control
Nc1ncnc2c1ncn2CCN(CCO)CCO,T/C,[1],172 % of control
same,T/C,"dose: 225.0 mg/kg/injection, schedule: Q01DX011 (ip), vehicle: saline",158 % of control
CCCCn1cnc2c(SCc3ccncc3)nc(N)nc21,T/C,"dose: 3.12 mg/kg/injection, schedule: Q01DX011 (ip), vehicle: methylcellulose (MC)",35 % of control
same,T/C,"dose: 6.25 mg/kg/injection, schedule: Q01DX011 (ip), vehicle: methylcellulose (MC)",106 % of control
same,T/C,"dose: 12.5 mg/kg/injection, schedule: Q01DX011 (ip), vehicle: methylcellulose (MC)",19 % of control
same,T/C,[7],1 % of control and 13 % of control
Oc1ccc2ccccc2c1N=Nc1ccc(F)cc1,T/C,"dose: 15.0 mg/kg/injection, schedule: Q01DX011 (ip), vehicle: carboxymethylcellulose (CMC)",70 % of control
same,T/C,[3],104 % of control
same,T/C,"dose: 31.0 mg/kg/injection, schedule: Q01DX011 (ip), vehicle: carboxymethylcellulose (CMC)",37 % of control
same,T/C,"dose: 45.0 mg/kg/injection, schedule: Q01DX011 (ip), vehicle: carboxymethylcellulose (CMC)",33 % of control
same,T/C,[6],30 % of control
same,T/C,[2],38 % of control
same,T/C,"dose: 62.0 mg/kg/injection, schedule: Q01DX011 (ip), vehicle: carboxymethylcellulose (CMC)",46 % of control
same,T/C,[8],27 % of control
same,T/C,"dose: 100.0 mg/kg/injection, schedule: Q01DX011 (ip), vehicle: saline",12 % of control
same,T/C,"dose: 200.0 mg/kg/injection, schedule: Q01DX011 (ip), vehicle: saline",22 % of control
same,T/C,"dose: 224.0 mg/kg/injection, schedule: Q01DX011 (ip), vehicle: carboxymethylcellulose (CMC)",9 % of control
same,T/C,[9],12 % of control and 15 % of control
same,T/C,"dose: 400.0 mg/kg/injection, schedule: Q01DX011 (ip), vehicle: saline",15 % of control
same,T/C,"dose: 450.0 mg/kg/injection, schedule: Q01DX011 (ip), vehicle: carboxymethylcellulose (CMC)",17 % of control
same,T/C,"dose: 600.0 mg/kg/injection, schedule: Q01DX011 (ip), vehicle: saline",14 % of control
same,T/C,[10],21 % of control
same,T/C,"dose: 1600.0 mg/kg/injection, schedule: Q01DX011 (ip), vehicle: carboxymethylcellulose (CMC)",8 % of control
Fc1ccc(CSc2ncnc3c2ncn3C2CCCO2)cc1 (configuration not stated),T/C,"dose: 4.6 mg/kg/injection, schedule: Q01DX011 (ip), vehicle: methylcellulose (MC)",53 % of control
same,T/C,"dose: 9.3 mg/kg/injection, schedule: Q01DX011 (ip), vehicle: methylcellulose (MC)",45 % of control
same,T/C,"dose: 18.7 mg/kg/injection, schedule: Q01DX011 (ip), vehicle: methylcellulose (MC)",10 % of control
same,T/C,"dose: 37.5 mg/kg/injection, schedule: Q01DX011 (ip), vehicle: methylcellulose (MC)",1 % of control and 3 % of control
CN(CC#N)/N=N/c1nc[nH]c1C(N)=O,T/C,"dose: 37.0 mg/kg/injection, schedule: Q01DX011 (ip), vehicle: carboxymethylcellulose (CMC)",108 % of control
same,T/C,[4],73 % of control
N#CCCn1cnc2c(=S)nc[nH]c21,T/C,"dose: 14.0 mg/kg/injection, schedule: Q01DX011 (ip), vehicle: other",89 % of control
CCC(=O)c1cc2c(cc1CC)C(C)(C)CCC2(C)C,T/C,[8],53 % of control and 63 % of control
C[C@H](N)C(=O)N[C@@H]1[C@H]2C(=C(O)C[C@@H](O)[C@@H]2O)C(=O)O[C@@H]1C,T/C,"dose: 250.0 mg/kg/injection, schedule: Q01DX011 (ip), vehicle: saline",79 % of control
same,T/C,"dose: 500.0 mg/kg/injection, schedule: Q01DX011 (ip), vehicle: saline",64 % of control
Oc1ccc2ccccc2c1-c1c(O)ccc2ccccc12,T/C,"dose: 12.6 mg/kg/injection, schedule: Q01DX011 (ip), vehicle: other",79 % of control
same,T/C,"dose: 25.0 mg/kg/injection, schedule: Q01DX011 (ip), vehicle: other",71 % of control
same,T/C,"dose: 50.0 mg/kg/injection, schedule: Q01DX011 (ip), vehicle: other",41 % of control
NS(=O)(=O)c1nc2nc[nH]c2c(=O)[nH]1,T/C,[3],66 % of control
same,T/C,[4],78 % of control
same,T/C,[5],61 % of control
COc1ccc(C(=O)OCC2OC(n3cnc4c(=S)nc[nH]c43)C(OC(=O)c3ccc(OC)cc3)C2OC(=O)c2ccc(OC)cc2)cc1 (configuration not stated),T/C,"dose: 200.0 mg/kg/injection, schedule: Q01DX011 (ip), vehicle: carboxymethylcellulose (CMC)",28 % of control
same,T/C,[9],2 % of control
same,T/C,[10],7 % of control
C[C@@H]1CC2=CC(=O)C=C[C@]2(C)[C@H]2CC[C@@]3(C)[C@@H](CC[C@]3(C)O)[C@H]12,T/C,"dose: 400.0 mg/kg/injection, schedule: Q01DX011 (sc), vehicle: steriod suspending solution",16 % of control
same,T/C,"dose: 800.0 mg/kg/injection, schedule: Q01DX011 (sc), vehicle: steriod suspending solution",33 % of control
Cn1c(=O)c2[nH]c(N/N=C/c3ccccc3)nc2n(C)c1=O,T/C,"dose: 20.0 mg/kg/injection, schedule: Q01DX011 (ip), vehicle: methylcellulose (MC)",56 % of control
same,T/C,[7],45 % of control and 53 % of control
same,T/C,"dose: 80.0 mg/kg/injection, schedule: Q01DX011 (ip), vehicle: methylcellulose (MC)",73 % of control
same,T/C,"dose: 225.0 mg/kg/injection, schedule: Q01DX011 (ip), vehicle: methylcellulose (MC)",41 % of control and 46 % of control
Nc1nc(Br)c2ncn(C3OC(CO)C(O)C3O)c2n1 (configuration not stated),T/C,"dose: 30.0 mg/kg/injection, schedule: Q01DX011 (ip), vehicle: carboxymethylcellulose (CMC)",107 % of control
same,T/C,"dose: 60.0 mg/kg/injection, schedule: Q01DX011 (ip), vehicle: carboxymethylcellulose (CMC)",86 % of control
same,T/C,"dose: 120.0 mg/kg/injection, schedule: Q01DX011 (ip), vehicle: carboxymethylcellulose (CMC)",106 % of control
same,T/C,"dose: 240.0 mg/kg/injection, schedule: Q01DX011 (ip), vehicle: carboxymethylcellulose (CMC)",103 % of control
